Measurements as given in US20240343704A1, “HALO-SUBSTITUTED AMINO PYRIDINE COMPOUNDS AS INHIBITORS OF THE HAEMATOPOIETIC PROGENITOR KINASE 1 (HPK1)” (priority 2021, published 2024).

Legend:
Lck (h) = Lck (h) (Homo sapiens, UniProt P06239); assay: Lck Human  Kinase Enzymatic Radiometric Assay; format: biochemical; conditions: read-out: Lck IC50 nM Range*
Outline: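 Substrate 33P-incorporation measured by scintillation counting after spotting on P30 filtermat and phosphoric acid washes. Human Lck reacted 40 min at RT in 50 mM Tris pH 7.5 with 10 mM MgAcetate, [gamma-33P]-ATP, 250 uM Cdc2 peptide, 0.1 mM EGTA and 0.1 mM Na3VO4.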

[1] = target: T1, Recombinant (1-346) HPK1 (h) (Homo sapiens, UniProt Q92918); assay: HPK1 Human STE Kinase Enzymatic Radiometric Assay; format: biochemical; conditions: read-out: HPK1 IC50 nM Range*
T1 construct: Recombinant (1-346) HPK1 (h) is incubated with 8 mM MOPS pH 7.0
T1 sequence (Q92918 1-346): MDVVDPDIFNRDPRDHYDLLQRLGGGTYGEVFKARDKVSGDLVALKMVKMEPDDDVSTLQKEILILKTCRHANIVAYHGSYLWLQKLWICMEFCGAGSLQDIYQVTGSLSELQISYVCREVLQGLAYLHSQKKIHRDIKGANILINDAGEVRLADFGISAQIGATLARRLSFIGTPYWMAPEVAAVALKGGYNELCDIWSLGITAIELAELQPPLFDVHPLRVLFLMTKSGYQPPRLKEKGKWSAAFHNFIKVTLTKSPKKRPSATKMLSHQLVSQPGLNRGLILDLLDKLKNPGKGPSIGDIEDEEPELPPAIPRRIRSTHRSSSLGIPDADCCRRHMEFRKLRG
Procedure: A stock solution of 10 mM of test compound is prepared in DMSO. The compound plate was prepared by 3-fold and 9-point serial dilutions. […] The reaction is initiated by The addition of the Mg/ATP mix. After incubation for 40 minutes at RT, the reaction is stopped by the addition of phosphoric acid to a concentration of 0.5%.

Chain of Lck (h) (P06239 whole entry): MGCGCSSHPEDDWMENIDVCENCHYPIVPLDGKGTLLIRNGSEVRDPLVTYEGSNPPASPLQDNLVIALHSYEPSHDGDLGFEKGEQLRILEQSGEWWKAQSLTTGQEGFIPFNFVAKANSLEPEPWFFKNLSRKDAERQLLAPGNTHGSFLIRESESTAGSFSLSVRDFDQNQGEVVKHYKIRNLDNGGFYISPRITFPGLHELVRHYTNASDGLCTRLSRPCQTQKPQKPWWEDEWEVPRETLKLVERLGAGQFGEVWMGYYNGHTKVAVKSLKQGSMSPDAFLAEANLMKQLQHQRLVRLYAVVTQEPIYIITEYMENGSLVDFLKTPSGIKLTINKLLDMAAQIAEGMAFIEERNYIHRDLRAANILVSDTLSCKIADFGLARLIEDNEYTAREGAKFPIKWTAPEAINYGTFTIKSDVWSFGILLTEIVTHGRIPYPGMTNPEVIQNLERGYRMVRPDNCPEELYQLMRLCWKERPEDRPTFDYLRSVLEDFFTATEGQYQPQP

| Structure (SMILES) | IC50 (Lck (h)) [nM] | IC50 [1] [nM] |
| --- | --- | --- |
| CCS(=N)(=O)c1ccc(-c2cc(-c3ccc4c(c3)CCNC4=O)c(N)nc2F)cc1 (stereo not drawn) [I-85, 6-(2-amino-5-(4-(ethylsulfonimidoyl)phenyl)-6-fluoropyridin-3-yl)-3,4-dihydroisoquinolin-1(2H)-one] | > 1000 | 11 to 100 |
| CS(=N)(=O)c1ccc(-c2cc(-c3ccc4c(c3)CCNC4=O)c(N)nc2F)cc1 (stereo not drawn) [I-86, 6-(2-amino-6-fluoro-5-(4-(S-methylsulfonimidoyl)phenyl)pyridin-3-yl)-3,4-dihydroisoquinolin-1(2H)-one] | > 1000 | 0.1 to 10 |
| Nc1nc(F)c(-c2ccc(S(=O)(=O)C(F)(F)F)cc2)cc1-c1ccc2c(c1)CCNC2=O [I-87, 6-(2-amino-6-fluoro-5-(4-((trifluoromethyl)sulfonyl)phenyl)pyridin-3-yl)-3,4-dihydroisoquinolin-1(2H)-one] | > 1000 | 11 to 100 |
| Nc1nc(F)c(-c2ccc(N3C[C@H]4COC[C@H]4C3)cc2)cc1-c1ccc2c(c1)CCNC2=O [I-91, 6-(2-amino-6-fluoro-5-(4-((3aR,6aS)-tetrahydro-1H-furo[3,4-c]pyrrol-5(3H)-yl)phenyl)pyridin-3-yl)-3,4-dihydroisoquinolin-1(2H)-one] | > 1000 | 11 to 100 |
| Nc1nc(F)c(-c2ccc(O[C@H]3CCCNC3)cc2)cc1-c1ccc2c(c1)CCNC2=O [I-94, (S)-6-(2-amino-6-fluoro-5-(4-(piperidin-3-yloxy)phenyl)pyridin-3-yl)-3,4-dihydroisoquinolin-1(2H)-one] | > 1000 | 0.1 to 10 |
| CC(C)N1CCN(c2ccc(-c3cc(-c4cc5c(cc4F)C(=O)NCC5)c(N)nc3F)cc2)CC1 [I-95, 6-(2-amino-6-fluoro-5-(4-(4-isopropylpiperazin-1-yl)phenyl)pyridin-3-yl)-7-fluoro-3,4-dihydroisoquinolin-1(2H)-one] | > 1000 | 0.1 to 10 |
| C[C@@H]1CN(c2ccc(-c3cc(-c4ccc5c(c4)CCNC5=O)c(N)nc3F)cc2)C[C@H](C)N1C [I-96, 6-(2-amino-6-fluoro-5-(4-((3R,5S)-3,4,5-trimethylpiperazin-1-yl)phenyl)pyridin-3-yl)-3,4-dihydroisoquinolin-1(2H)-one] | > 1000 | 0.1 to 10 |
| C[C@H]1CN(c2ccc(-c3cc(-c4ccc5c(c4)CCNC5=O)c(N)nc3F)cc2)C[C@H](C)N1C [I-97, 6-(2-amino-6-fluoro-5-(4-((3S,5S)-3,4,5-trimethylpiperazin-1-yl)phenyl)pyridin-3-yl)-3,4-dihydroisoquinolin-1(2H)-one] | > 1000 | 0.1 to 10 |
| Nc1nc(F)c(-c2ccc(S(=O)(=O)N3CCOCC3)cc2)cc1-c1ccc2c(c1)CCNC2=O [I-98, 6-(2-amino-6-fluoro-5-(4-(morpholinosulfonyl)phenyl)pyridin-3-yl)-3,4-dihydroisoquinolin-1(2H)-one] | > 1000 | 11 to 100 |
| Nc1nc(F)c(-c2ccc(S(=O)(=O)N3CCCC3)cc2)cc1-c1ccc2c(c1)CCNC2=O [I-99, 6-(2-amino-6-fluoro-5-(4-(pyrrolidin-1-ylsulfonyl)phenyl)pyridin-3-yl)-3,4-dihydroisoquinolin-1(2H)-one] | > 1000 | 11 to 100 |
| Nc1nc(F)c(-c2ccc(C3CCCCN3CC(F)F)cc2)cc1-c1ccc2c(c1)CCNC2=O (stereo not drawn) [I-101, 6-(2-amino-5-(4-(1-(2,2-difluoroethyl)piperidin-2-yl)phenyl)-6-fluoropyridin-3-yl)-3,4-dihydroisoquinolin-1(2H)-one] | > 1000 | 11 to 100 |
| Nc1nc(F)c(-c2ccc(C3CN(CC(F)F)CCO3)cc2)cc1-c1ccc2c(c1)CCNC2=O (stereo not drawn) [I-103, 6-(2-amino-5-(4-(4-(2,2-difluoroethyl)morpholin-2-yl)phenyl)-6-fluoropyridin-3-yl)-3,4-dihydroisoquinolin-1(2H)-one] | > 1000 | 11 to 100 |
| C[C@@H]1COCCN1c1ccc(-c2cc(-c3ccc4c(c3)CCNC4=O)c(N)nc2F)c(F)c1 [I-108, (R)-6-(2-amino-6-fluoro-5-(2-fluoro-4-(3-methylmorpholino)phenyl)pyridin-3-yl)-3,4-dihydroisoquinolin-1(2H)-one] | > 1000 | 11 to 100 |
| Nc1nc(F)c(-c2ccc(C3=CCNC3)cc2)cc1-c1ccc2c(c1)CCNC2=O [I-109, 6-(2-amino-5-(4-(2,5-dihydro-1H-pyrrol-3-yl)phenyl)-6-fluoropyridin-3-yl)-3,4-dihydroisoquinolin-1(2H)-one 2,2,2-trifluoroacetate] | > 1000 | 0.1 to 10 |
| CC(C)N1C[C@H]2C[C@@]2(c2ccc(-c3cc(-c4ccc5c(c4)CCNC5=O)c(N)nc3F)cc2)C1 [I-110, 6-(2-amino-6-fluoro-5-(4-((1R,5S)-3-isopropyl-3-azabicyclo[3.1.0]hexan-1-yl)phenyl)pyridin-3-yl)-3,4-dihydroisoquinolin-1(2H)-one] | > 1000 | 0.1 to 10 |
| CC(C)N1C[C@@H]2C[C@]2(c2ccc(-c3cc(-c4ccc5c(c4)CCNC5=O)c(N)nc3F)cc2)C1 [I-111, 6-(2-amino-6-fluoro-5-(4-((1S,5R)-3-isopropyl-3-azabicyclo[3.1.0]hexan-1-yl)phenyl)pyridin-3-yl)-3,4-dihydroisoquinolin-1(2H)-one 2,2,2-trifluoroacetate] | > 1000 | 0.1 to 10 |

More lines, now with the values ahead:

| IC50 (Lck (h)) [nM] | IC50 [1] [nM] | Structure (SMILES) |
| --- | --- | --- |
| > 1000 | 0.1 to 10 | CC1CN(c2ccc(-c3cc(-c4ccc5c(c4)CCNC5=O)c(N)nc3F)cc2)CCN1C (stereo not drawn) [I-88, 6-(2-amino-5-(4-(3,4-dimethylpiperazin-1-yl)phenyl)-6-fluoropyridin-3-yl)-3,4-dihydroisoquinolin-1(2H)-one] |
| > 1000 | 11 to 100 | Nc1nc(F)c(-c2ccc(C3CCCN(CC(F)(F)F)C3)cc2)cc1-c1ccc2c(c1)CCNC2=O (stereo not drawn) [I-89, 6-(2-amino-6-fluoro-5-(4-(1-(2,2,2-trifluoroethyl)piperidin-3-yl)phenyl)pyridin-3-yl)-3,4-dihydroisoquinolin-1(2H)-one] |
| > 1000 | 11 to 100 | Nc1nc(F)c(-c2ccc(C3CN(CC(F)(F)F)CCO3)cc2)cc1-c1ccc2c(c1)CCNC2=O (stereo not drawn) [I-90, 6-(2-amino-6-fluoro-5-(4-(4-(2,2,2-trifluoroethyl)morpholin-2-yl)phenyl)pyridin-3-yl)-3,4-dihydroisoquinolin-1(2H)-one] |
| > 1000 | 0.1 to 10 | Nc1nc(F)c(-c2ccc(N3C[C@@H]4CCO[C@@H]4C3)cc2)cc1-c1ccc2c(c1)CCNC2=O [I-92, 6-(2-amino-6-fluoro-5-(4-((3aS,6aS)-hexahydro-5H-furo[2,3-c]pyrrol-5-yl)phenyl)pyridin-3-yl)-3,4-dihydroisoquinolin-1(2H)-one] |
| > 1000 | 11 to 100 | Nc1nc(F)c(-c2ccc(C3CCCCN3CC(F)(F)F)cc2)cc1-c1ccc2c(c1)CCNC2=O (stereo not drawn) [I-93, 6-(2-amino-6-fluoro-5-(4-(1-(2,2,2-trifluoroethyl)piperidin-2-yl)phenyl)pyridin-3-yl)-3,4-dihydroisoquinolin-1(2H)-one] |
| > 1000 | 0.1 to 10 | CCN1CCCCC1c1ccc(-c2cc(-c3ccc4c(c3)CCNC4=O)c(N)nc2F)cc1 (stereo not drawn) [I-100, 6-(2-amino-5-(4-(1-ethylpiperidin-2-yl)phenyl)-6-fluoropyridin-3-yl)-3,4-dihydroisoquinolin-1(2H)-one] |
| > 1000 | 11 to 100 | CCN1CCOC(c2ccc(-c3cc(-c4ccc5c(c4)CCNC5=O)c(N)nc3F)cc2)C1 (stereo not drawn) [I-102, 6-(2-amino-5-(4-(4-ethylmorpholin-2-yl)phenyl)-6-fluoropyridin-3-yl)-3,4-dihydroisoquinolin-1(2H)-one] |
| > 1000 | 0.1 to 10 | CC(C)N1CCCCC1c1ccc(-c2cc(-c3ccc4c(c3)CCNC4=O)c(N)nc2F)cc1 (stereo not drawn) [I-104, 6-(2-amino-6-fluoro-5-(4-(1-isopropylpiperidin-2-yl)phenyl)pyridin-3-yl)-3,4-dihydroisoquinolin-1(2H)-one] |
| > 1000 | 0.1 to 10 | CC(C)N1CCOC(c2ccc(-c3cc(-c4ccc5c(c4)CCNC5=O)c(N)nc3F)cc2)C1 (stereo not drawn) [I-105, 6-(2-amino-6-fluoro-5-(4-(4-isopropylmorpholin-2-yl)phenyl)pyridin-3-yl)-3,4-dihydroisoquinolin-1(2H)-one] |
| > 1000 | 0.1 to 10 | CN1C[C@@H]2C[C@]2(c2ccc(-c3cc(-c4ccc5c(c4)CCNC5=O)c(N)nc3F)cc2)C1 [I-106, 6-(2-amino-6-fluoro-5-(4-((1S,5R)-3-methyl-3-azabicyclo[3.1.0]hexan-1-yl)phenyl)pyridin-3-yl)-3,4-dihydroisoquinolin-1(2H)-one] |
| > 1000 | 0.1 to 10 | COCCN1CCC(c2ccc(-c3cc(-c4ccc5c(c4)CCNC5=O)c(N)nc3F)cc2)CC1 [I-107, 6-(2-amino-6-fluoro-5-(4-(1-(2-methoxyethyl)piperidin-4-yl)phenyl)pyridin-3-yl)-3,4-dihydroisoquinolin-1(2H)-one] |
